Assay results as given in ChEMBL document CHEMBL4304757, “Synthetic heterocyclic candidates as promising α-glucosidase inhibitors: An overview” (Eur J Med Chem, 2019).

molecular target: T1, Alpha glucosidase (Homo sapiens, UniProt O43451+P10253+P14410+Q2M2H8); assay: Inhibition of alpha-glucosidase (unknown origin) using p-nitrophenyl-alpha-d-glucopyranoside as substrate preincubated for 10 mins followed by substrate addition measured after 30 mins; type: protein assay

IC50	SMILES
0.4 to 38 µM	O=C(NNC(=S)Nc1cccc(F)c1)c1ccc(-c2nnc(-c3ccccc3Cl)o2)cc1
0.4 to 38 µM	O=C(NNC(=S)Nc1ccc(Br)cc1)c1ccc(-c2nnc(-c3ccccc3Cl)o2)cc1
0.4 to 38 µM	O=C(NNC(=S)Nc1cccc([N+](=O)[O-])c1)c1ccc(-c2nnc(-c3ccccc3Cl)o2)cc1
2.3 to 29 µM	CCOC(=O)C1=C(Nc2cccc([N+](=O)[O-])c2)C[C@@H](c2ccc(C)cc2)N(c2cccc([N+](=O)[O-])c2)[C@@H]1c1ccc(C)cc1
0.4 µM	O=C(NNC(=S)Nc1ccccc1F)c1ccc(-c2nnc(-c3ccccc3Cl)o2)cc1
0.4 to 38 µM	O=C(NNC(=S)Nc1ccccc1Br)c1ccc(-c2nnc(-c3ccccc3Cl)o2)cc1
2.3 to 29 µM	CCOC(=O)C1=C(Nc2cccc(Cl)c2)C[C@@H](c2ccc(Cl)cc2)N(c2cccc(Cl)c2)[C@@H]1c1ccc(Cl)cc1
0.4 to 38 µM	O=C(NNC(=S)Nc1ccc([N+](=O)[O-])cc1)c1ccc(-c2nnc(-c3ccccc3Cl)o2)cc1
0.4 to 38 µM	O=C(NNC(=S)Nc1ccc(F)cc1)c1ccc(-c2nnc(-c3ccccc3Cl)o2)cc1
0.6 µM	O=C(NNC(=S)Nc1ccc(C(F)(F)F)cc1)c1ccc(-c2nnc(-c3ccccc3Cl)o2)cc1
0.7 µM	O=C(NNC(=S)Nc1ccccc1Cl)c1ccc(-c2nnc(-c3ccccc3Cl)o2)cc1
0.4 to 38 µM	COc1cccc(NC(=S)NNC(=O)c2ccc(-c3nnc(-c4ccccc4Cl)o3)cc2)c1
0.4 to 38 µM	COc1ccc(NC(=S)NNC(=O)c2ccc(-c3nnc(-c4ccccc4Cl)o3)cc2)cc1
0.4 to 38 µM	Cc1cccc(NC(=S)NNC(=O)c2ccc(-c3nnc(-c4ccccc4Cl)o3)cc2)c1
0.4 to 38 µM	COc1ccccc1NC(=S)NNC(=O)c1ccc(-c2nnc(-c3ccccc3Cl)o2)cc1
0.4 to 38 µM	O=C(NNC(=S)Nc1ccc(Cl)c(Cl)c1)c1ccc(-c2nnc(-c3ccccc3Cl)o2)cc1
0.4 to 38 µM	O=C(NNC(=S)Nc1ccc(Cl)cc1)c1ccc(-c2nnc(-c3ccccc3Cl)o2)cc1
0.4 to 38 µM	Cc1ccc(NC(=S)NNC(=O)c2ccc(-c3nnc(-c4ccccc4Cl)o3)cc2)cc1
2.3 µM	CCOC(=O)C1=C(Nc2cccc(Br)c2)C[C@@H](c2ccc(Cl)cc2)N(c2cccc(Br)c2)[C@@H]1c1ccc(Cl)cc1
2.3 to 29 µM	CCOC(=O)C1=C(Nc2cccc(F)c2)C[C@@H](c2ccc(Cl)cc2)N(c2cccc(F)c2)[C@@H]1c1ccc(Cl)cc1

molecular target: not listed separately; assay: Inhibition of yeast alpha-glucosidase using p-nitrophenyl-alpha-d-glucopyranoside as substrate preincubated for 5 mins followed by substrate addition measured after 5 mins; set-up: species or system Saccharomyces cerevisiae

IC50	SMILES
12 to 162 µM	COc1ccc(O)c(-c2nnc(-c3cc4ccc([N+](=O)[O-])cc4o3)o2)c1
12 to 162 µM	O=[N+]([O-])c1ccc2cc(-c3nnc(-c4ccc(O)cc4O)o3)oc2c1
12 to 162 µM	COc1ccc(-c2nnc(-c3cc4ccc([N+](=O)[O-])cc4o3)o2)c(O)c1
12 to 162 µM	COc1ccc(-c2nnc(-c3cc4ccc([N+](=O)[O-])cc4o3)o2)cc1O
12 to 162 µM	O=[N+]([O-])c1ccc2cc(-c3nnc(-c4cccc(F)c4)o3)oc2c1
12 to 162 µM	O=[N+]([O-])c1ccc2cc(-c3nnc(-c4ccc(O)cc4)o3)oc2c1
12 to 162 µM	O=[N+]([O-])c1ccc2cc(-c3nnc(-c4cccc(O)c4)o3)oc2c1
12 to 162 µM	O=[N+]([O-])c1ccc2cc(-c3nnc(-c4ccc(O)c(O)c4)o3)oc2c1
12 to 162 µM	O=[N+]([O-])c1ccc2cc(-c3nnc(-c4ccccc4Cl)o3)oc2c1
12 to 162 µM	O=[N+]([O-])c1ccc2cc(-c3nnc(-c4ccccc4F)o3)oc2c1
12 to 162 µM	O=[N+]([O-])c1ccc2cc(-c3nnc(-c4cccc(Cl)c4)o3)oc2c1
12 to 162 µM	O=[N+]([O-])c1ccc2cc(-c3nnc(-c4cc(O)cc(O)c4)o3)oc2c1
12 to 162 µM	O=[N+]([O-])c1ccc2cc(-c3nnc(-c4ccccc4O)o3)oc2c1
12 µM	O=[N+]([O-])c1ccc2cc(-c3nnc(-c4cccc(O)c4O)o3)oc2c1
12 to 162 µM	O=[N+]([O-])c1ccc2cc(-c3nnc(-c4ccc(Cl)cc4)o3)oc2c1
12 to 162 µM	O=[N+]([O-])c1ccc2cc(-c3nnc(-c4ccc(F)cc4)o3)oc2c1
12 to 162 µM	O=[N+]([O-])c1ccc2cc(-c3nnc(-c4cc(O)ccc4O)o3)oc2c1

molecular target: T1, Alpha glucosidase; assay: Inhibition of alpha-glucosidase (unknown origin) using p-nitro phenyl glucopyranoside as substrate preincubated for 10 mins followed by substrate addition measured after 30 mins; type: protein assay

IC50	SMILES
6.2 to 81 µM	CC(C)(C)c1cc(/C=N/NC(=O)c2nc(-c3cc4ccccc4oc3=O)cs2)c(O)c(C(C)(C)C)c1
6.2 to 81 µM	O=C(N/N=C/c1cccc(Br)c1)c1nc(-c2cc3ccccc3oc2=O)cs1
6.2 to 81 µM	O=C(N/N=C/c1cccc(Cl)c1)c1nc(-c2cc3ccccc3oc2=O)cs1
6.2 to 81 µM	O=C(N/N=C/c1ccc(O)c(F)c1)c1nc(-c2cc3ccccc3oc2=O)cs1
6.2 to 81 µM	O=C(N/N=C/c1ccccc1O)c1nc(-c2cc3ccccc3oc2=O)cs1
6.2 to 81 µM	O=C(N/N=C/c1ccccc1F)c1nc(-c2cc3ccccc3oc2=O)cs1
6.2 to 81 µM	O=C(N/N=C/c1ccc(Cl)cc1)c1nc(-c2cc3ccccc3oc2=O)cs1
6.2 to 81 µM	O=C(N/N=C/c1ccc(C(F)(F)F)cc1)c1nc(-c2cc3ccccc3oc2=O)cs1
6.2 to 81 µM	O=C(N/N=C/c1cc(Cl)ccc1O)c1nc(-c2cc3ccccc3oc2=O)cs1
6.2 to 81 µM	O=C(N/N=C/c1ccc(O)c(O)c1)c1nc(-c2cc3ccccc3oc2=O)cs1
6.2 to 81 µM	COc1ccccc1/C=N/NC(=O)c1nc(-c2cc3ccccc3oc2=O)cs1
6.2 to 81 µM	COc1ccc(/C=N/NC(=O)c2nc(-c3cc4ccccc4oc3=O)cs2)c(O)c1
6.2 to 81 µM	O=C(N/N=C/c1cccc(F)c1)c1nc(-c2cc3ccccc3oc2=O)cs1
6.2 to 81 µM	COc1ccc(/C=N/NC(=O)c2nc(-c3cc4ccccc4oc3=O)cs2)cc1
6.2 to 81 µM	O=C(N/N=C/c1ccc(O)cc1)c1nc(-c2cc3ccccc3oc2=O)cs1

molecular target: not listed separately; assay: Inhibition of yeast alpha-glucosidase using p-nitrophenyl-alpha-d-glucopyranoside as substrate preincubated for 10 mins followed by substrate addition measured after 20 mins; set-up: species or system Saccharomyces cerevisiae

IC50	SMILES
10 to 172 µM	COc1ccc(C2C(C#N)=C(N)Oc3c2c(=O)[nH]c2c3ccc3ccccc32)cc1 (centres undefined)
10 to 172 µM	N#CC1=C(N)Oc2c(c(=O)[nH]c3c2ccc2ccccc23)C1c1cccc(O)c1 (centres undefined)
15 µM	N#CC1=C(N)Oc2c(c(=O)[nH]c3c2ccc2ccccc23)C1c1ccc(F)cc1 (centres undefined)
10 to 172 µM	COc1cc(C2C(C#N)=C(N)Oc3c2c(=O)[nH]c2c3ccc3ccccc32)ccc1O (centres undefined)
10 to 172 µM	CN(C)c1ccc(C2C(C#N)=C(N)Oc3c2c(=O)[nH]c2c3ccc3ccccc32)cc1 (centres undefined)
10 to 172 µM	N#CC1=C(N)Oc2c(c(=O)[nH]c3c2ccc2ccccc23)C1c1ccccc1 (centres undefined)
10 to 172 µM	Cc1ccsc1C1C(C#N)=C(N)Oc2c1c(=O)[nH]c1c2ccc2ccccc21 (centres undefined)
10 to 172 µM	N#CC1=C(N)Oc2c(c(=O)[nH]c3c2ccc2ccccc23)C1c1ccc([N+](=O)[O-])cc1 (centres undefined)
10 to 172 µM	N#CC1=C(N)Oc2c(c(=O)[nH]c3c2ccc2ccccc23)C1c1ccccc1Br (centres undefined)
10 to 172 µM	N#CC1=C(N)Oc2c(c(=O)[nH]c3c2ccc2ccccc23)C1c1cccc(F)c1 (centres undefined)
10 to 172 µM	COc1ccc(C2C(C#N)=C(N)Oc3c2c(=O)[nH]c2c3ccc3ccccc32)cc1OC (centres undefined)
10 to 172 µM	Cc1ccc(C2C(C#N)=C(N)Oc3c2c(=O)[nH]c2c3ccc3ccccc32)cc1 (centres undefined)
10 µM	N#CC1=C(N)Oc2c(c(=O)[nH]c3c2ccc2ccccc23)C1c1ccc(Cl)cc1 (centres undefined)
10 to 172 µM	N#CC1=C(N)Oc2c(c(=O)[nH]c3c2ccc2ccccc23)C1c1ccc(Br)cc1 (centres undefined)
10 to 172 µM	N#CC1=C(N)Oc2c(c(=O)[nH]c3c2ccc2ccccc23)C1c1ccc(O)cc1 (centres undefined)
10 to 172 µM	N#CC1=C(N)Oc2c(c(=O)[nH]c3c2ccc2ccccc23)C1c1cccc([N+](=O)[O-])c1 (centres undefined)
10 to 172 µM	N#CC1=C(N)Oc2c(c(=O)[nH]c3c2ccc2ccccc23)C1c1ccncc1 (centres undefined)
